Data as given in ChEMBL document CHEMBL2029277, “Discovery of XL413, a potent and selective CDC7 inhibitor” (Bioorg Med Chem Lett, 2012).

How the values were obtained:
[1] = biological target: Serine/threonine-protein kinase pim-1 (Homo sapiens, UniProt P11309); test: Inhibition of N-terminus His-tagged human PIM1 expressed in Escherichia coli using AKRRRLSA as substrate after 1 to 2 hrs by chemiluminescence assay
[2] = biological target: T1, Cell division cycle 7-related protein kinase (Homo sapiens, UniProt O00311); test: Inhibition of N-terminus Myc-tagged human CDC7 expressed in Escherichia coli by chemiluminescence assay in presence of ATP
T1 sequence (O00311 whole entry): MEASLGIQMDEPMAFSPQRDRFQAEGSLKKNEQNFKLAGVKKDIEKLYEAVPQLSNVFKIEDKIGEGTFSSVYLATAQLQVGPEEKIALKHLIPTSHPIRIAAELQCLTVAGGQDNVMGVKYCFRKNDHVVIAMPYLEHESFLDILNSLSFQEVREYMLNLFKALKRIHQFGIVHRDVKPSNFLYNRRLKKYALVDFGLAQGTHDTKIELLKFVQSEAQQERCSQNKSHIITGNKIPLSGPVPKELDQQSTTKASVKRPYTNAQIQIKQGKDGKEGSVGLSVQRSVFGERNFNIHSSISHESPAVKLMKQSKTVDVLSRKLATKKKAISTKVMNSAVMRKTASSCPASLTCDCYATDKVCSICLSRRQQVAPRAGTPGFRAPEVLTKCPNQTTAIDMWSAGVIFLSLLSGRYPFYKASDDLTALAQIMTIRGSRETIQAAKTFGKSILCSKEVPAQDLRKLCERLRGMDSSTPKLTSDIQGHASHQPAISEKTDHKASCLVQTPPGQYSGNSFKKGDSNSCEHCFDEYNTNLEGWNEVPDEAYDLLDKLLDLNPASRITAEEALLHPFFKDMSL

[3] = biological target: T1, Cell division cycle 7-related protein kinase; test: Inhibition of CDC7 in human MDA-MB-231T cells assessed as inhibition of MCM2 phosphorylation at Ser53 after 4 hrs; type: cell-based
[4] = biological target: Casein kinase II alpha/beta (Homo sapiens, UniProt P68400); test: Inhibition of human tertrameric CK2alphabeta holoenzyme using casein as substrate after 1 to 2 hrs by chemiluminescence assay in presence of 2 uM ATP; type: protein-complex assay
Sequence of Casein kinase II alpha/beta (P67870 whole entry): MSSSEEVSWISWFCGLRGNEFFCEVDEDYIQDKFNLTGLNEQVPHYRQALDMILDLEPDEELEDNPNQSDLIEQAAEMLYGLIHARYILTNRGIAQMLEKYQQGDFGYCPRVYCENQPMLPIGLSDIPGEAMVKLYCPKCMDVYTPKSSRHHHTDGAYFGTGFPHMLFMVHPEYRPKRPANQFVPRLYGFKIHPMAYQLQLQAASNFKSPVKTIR
Sequence of Casein kinase II alpha/beta (P68400 whole entry): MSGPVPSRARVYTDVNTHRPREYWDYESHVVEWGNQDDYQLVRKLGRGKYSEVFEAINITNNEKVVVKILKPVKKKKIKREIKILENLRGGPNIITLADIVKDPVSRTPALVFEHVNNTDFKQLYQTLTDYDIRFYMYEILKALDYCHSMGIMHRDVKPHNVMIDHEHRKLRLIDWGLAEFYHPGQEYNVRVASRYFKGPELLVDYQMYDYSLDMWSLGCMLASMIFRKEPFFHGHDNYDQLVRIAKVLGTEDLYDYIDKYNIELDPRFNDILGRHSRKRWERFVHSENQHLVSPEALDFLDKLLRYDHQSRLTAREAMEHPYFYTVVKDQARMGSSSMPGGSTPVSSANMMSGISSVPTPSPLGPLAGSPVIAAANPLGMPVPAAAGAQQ

[5] = Plasma concentration in mouse at 100 mg/kg, po measured after 4 hrs; type: ADME, organism-based; parameters: dose 100 mg/kg, route oral
[6] = Plasma concentration in mouse at 100 mg/kg, po measured after 1 hr; type: ADME, organism-based; parameters: dose 100 mg/kg, route oral

Sequence of Serine/threonine-protein kinase pim-1 (P11309 whole entry): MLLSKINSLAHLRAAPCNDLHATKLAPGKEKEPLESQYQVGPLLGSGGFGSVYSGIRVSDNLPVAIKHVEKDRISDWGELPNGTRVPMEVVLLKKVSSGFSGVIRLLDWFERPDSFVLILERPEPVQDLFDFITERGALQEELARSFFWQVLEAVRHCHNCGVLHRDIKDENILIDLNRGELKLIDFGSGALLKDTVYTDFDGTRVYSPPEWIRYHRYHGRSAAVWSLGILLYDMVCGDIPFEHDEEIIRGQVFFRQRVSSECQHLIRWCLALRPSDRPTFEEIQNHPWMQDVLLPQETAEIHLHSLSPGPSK

Row | Compound | IC50 [1] | IC50 [2] | IC50 [3] | IC50 [4] | concentration at 4 h [5] | concentration at 1 h [6]
1 | O=c1[nH]c([C@@H]2C[C@@H](F)CN2)nc2c1oc1ccc(Cl)cc12 | 65 nM | 4 nM | 167 nM | 752 nM | – | –
2 | COc1ccc2oc3c(=O)[nH]c([C@@H]4C[C@@H](F)CN4)nc3c2c1 | 102 nM | 3.9 nM | 292 nM | 733 nM | – | –
3 | O=C(O)C1CCN(Cc2nc3c(oc4ccc(Br)cc43)c(=O)[nH]2)C1 (racemic) | 142 nM | 13 nM | > 40000 nM | 49 nM | – | –
4 | O=c1[nH]c(C2CCCNC2)nc2c1oc1ccc(Br)cc12 (racemic) | 39 nM | 15 nM | 2360 nM | 175 nM | – | –

The next lines start with the values.

Row | IC50 [1] | IC50 [2] | IC50 [3] | IC50 [4] | concentration at 4 h [5] | concentration at 1 h [6] | Compound
5 | – | – | – | – | 310 nM | 820 nM | Cc1cc(-c2cc(-c3ccccc3)nc(=O)[nH]2)ccc1O
6 | 72 nM | 7.9 nM | 874 nM | 757 nM | – | – | CC(N)c1nc2c(oc3ccc(Br)cc32)c(=O)[nH]1 (racemic)
